Experimental data: patent US9624238B2, “4H-thieno[3,2-C]chromene-based inhibitors of Notum Pectinacetylesterase and methods of their use” (Lexicon Pharmaceuticals, Inc., priority 2011, dated 2017)

How the values were obtained:
[1] = target: T1, human notum pectinacetyltransferase (Homo sapiens, UniProt Q6P988); experiment: Reporter assay (CellSensor LEF/TCF-bla FreeStyle 293F cells, Wnt3a and notum conditioned media); format: cell-based
T1 construct: made in house; unpurified conditioned medium used
T1 sequence (Q6P988 20-496): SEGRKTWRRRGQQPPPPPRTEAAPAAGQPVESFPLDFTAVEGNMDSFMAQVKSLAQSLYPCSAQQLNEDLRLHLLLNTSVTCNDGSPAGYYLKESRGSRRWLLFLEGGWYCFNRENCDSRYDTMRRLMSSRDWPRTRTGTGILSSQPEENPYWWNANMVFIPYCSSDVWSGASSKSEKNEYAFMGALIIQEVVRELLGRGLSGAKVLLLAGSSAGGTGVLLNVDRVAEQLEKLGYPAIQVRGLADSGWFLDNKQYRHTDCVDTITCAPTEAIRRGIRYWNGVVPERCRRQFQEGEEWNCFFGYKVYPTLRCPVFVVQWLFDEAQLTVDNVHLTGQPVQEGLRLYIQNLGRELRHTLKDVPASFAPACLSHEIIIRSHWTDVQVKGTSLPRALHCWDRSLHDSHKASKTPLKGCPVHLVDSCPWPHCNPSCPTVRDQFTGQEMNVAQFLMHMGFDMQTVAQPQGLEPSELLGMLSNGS
Procedure: Plasmid containing human notum pectinacetyltransferase in pcDNA3.1(+) vector was transfected into HEK (293 cells and clones were selecting by growing in presence of 400 ug/mL of G418. The clone containing highest expression of human notum pectinacetyltransferase in the conditioned media was maintained for all future activity assays. L cells overexpressing and secreting Wnt3a into the conditioned media were purchased from ATCC.
The assay protocol was as follows. […] The cell growth medium consisted of DMEM with 10% Dialyzed FBS, 5 μg/ml Blasticidin (Invitrogen, R210-01), 0.1 mM NEAA, 25 mM HEPES and 1×GPS. Cells were then trypsinized by first rinsing with PBS, followed by addition of 5 mL of trypsin and incubation of plates at room temperature for two minutes. A total of 10 mL of assay media (Opti-MEM, plus 0.5% dialyzed FBS, 0.1 mM NEAA, 1 mM sodium pyruvate, 10 mM HEPES, 1×GPS) was then added per 15 cm plate. Cells were counted and suspended at 0.75 million cells per mL. […] After incubation of cells at 37° C. for 3 hours, 10 μL of 30 mM LiCl in assay medium was added per well, followed by incubation at 37° C. for another 3 hours. […] Ten μL of the Wnt3a/notum pentinacetyltransferase mixture was then transferred from Greiner plates to each well of the 384-well plates containing the CellSensor cells.

[2] = target: T1, human notum pectinacetyltransferase; experiment: Binding assay (OPTS esterase substrate, fluorimetric); format: biochemical
Procedure: Plasmid containing human notum pectinacetyltransferase in pcDNA3.1(+) vector was transfected into HEK (293 cells and clones were selecting by growing in presence of 400 ug/mL of G418. Condition media from these cells was used for the assay.

[3] = given as a numeric bound above the legend's range
[4] = given as numeric bound above the legend's highest class
[5] = given as numeric bound above the legend's classes

Row | IC50 [2, 4] [µM] | IC50 ([2]; class symbols) [µM] | Compound | further results
1 | – | – | CC(C)c1ccc2c(c1)-c1sc(C(N)=O)cc1CO2 | EC50 ([1]; class symbols): < 1 µM; IC50 [2, 3]: > 2 µM
2 | > 2 | – | CCOC(=O)c1cc2c(s1)-c1cc(F)ccc1OC2C (centres unmarked) | –
3 | – | < 1 | Cc1ccc2c(c1C)-c1sc(C(N)=O)cc1CC2 | –
4 | – | < 0.05 | CC1(C)Cc2cc(C(N)=O)sc2-c2c(F)ccc(F)c21 | –
5 | – | – | O=C(O)c1cc2c(s1)-c1ccoc1CC2 | EC50 [1, 5]: > 1 µM
6 | > 2 | – | COCC1CCCN1C(=O)c1cc2c(s1)-c1cc(F)cc(F)c1SC2 (centres unmarked) | –
7 | – | < 1 | CC1(C)Cc2cc(C(=O)O)sc2-c2ccccc21 | –
8 | > 2 | – | O=C(O)C1C(O)CCN1C(=O)c1cc2c(s1)-c1c(F)ccc(F)c1SC2 (centres unmarked) | –
9 | – | < 1 | O=C(O)c1cc2c(s1)-c1ccc(Cl)cc1CC2 | –
10 | – | – | CCOC(=O)c1cc2c(s1)-c1cc(F)ccc1OC2 | IC50 [2, 3]: > 2 µM
11 | – | < 1 | O=C(O)c1cc2c(s1)-c1c(F)cc(F)cc1SC2 | –
12 | – | < 1 | CCOC(=O)c1cc2c(s1)-c1ccc(C)c(F)c1CC2 | –
13 | – | < 1 | CCCCNC(=O)c1cc2c(s1)-c1ccccc1CC2 | –
14 | > 2 | – | N#Cc1ccc2c(c1)-c1sc(C(=O)O)cc1CO2 | –
15 | – | < 2 | O=C(O)c1cc2c(s1)-c1c(F)cc(F)cc1OC2 | –
16 | > 2 | – | CCOC(=O)c1cc2c(s1)-c1ccc(C#N)cc1CC2 | –
17 | – | – | Cc1ccc2c(c1)-c1sc(C(=O)O)cc1CS2 | IC50 [2, 3]: > 2 µM
18 | > 2 | – | CCOC(=O)c1cc2c(s1)-c1ccc(C)cc1CC2 | –
19 | – | < 1 | O=C(O)C1CCCN1C(=O)c1cc2c(s1)-c1c(F)ccc(F)c1SC2 (centres unmarked) | –
20 | – | < 2 | O=C(O)c1cc2c(s1)-c1cc(Cl)ccc1SC2 | –
21 | > 2 | – | CCOC(=O)c1cc2c(s1)-c1cccc(C#N)c1CC2 | –
22 | – | < 1 | CC1Oc2ccc(F)cc2-c2sc(C(=O)O)cc21 (centres unmarked) | –
23 | – | – | O=C(O)c1cc2c(s1)-c1scnc1CC2 | EC50 [1, 5]: > 1 µM

Row | IC50 [2, 4] [µM] | IC50 ([2]; class symbols) [µM] | Compound | further results
24 | > 2 | – | CC1(C)Oc2ccccc2-c2sc(C(=O)O)cc21 | –
25 | > 2 | – | N#Cc1cccc2c1-c1sc(C(=O)O)cc1CC2 | –
26 | – | < 0.05 | NC(=O)c1cc2c(s1)-c1c(F)ccc(F)c1OC2 | –
27 | – | < 1 | Cc1ccc2c(c1)CCc1cc(C(=O)O)sc1-2 | –
28 | – | – | O=C(O)c1cc2c(s1)-c1sccc1CC2 [4,5-dihydrobenzo[1,2-b:6,5-b′]dithiophene-2-carboxylic acid] | EC50 ([1]; class symbols): < 1 µM
29 | – | – | CC1(C)Cc2cc(C(=O)O)sc2-c2cc(Br)ccc21 | IC50 [2, 3]: > 2 µM
30 | – | < 2 | O=C(O)C1CCCN1C(=O)c1cc2c(s1)-c1cc(F)cc(F)c1SC2 (centres unmarked) | –
31 | – | < 1 | COC(=O)c1cc2c(s1)-c1ccccc1OC2 | –
32 | – | < 1 | Cc1ccc2c(c1C)CCc1cc(C(N)=O)sc1-2 | –
33 | > 2 | – | Cc1cc2c(cc1C)-c1sc(C(=O)O)cc1CS2 | –
34 | > 2 | – | NC(=O)c1cc(F)c2c(c1)-c1sc(C(=O)O)cc1CO2 | –
35 | > 2 | – | CS(=O)(=O)NC(=O)c1cc2c(s1)-c1ccccc1CC2 | –
36 | > 2 | – | CC(C)(C)OC(=O)CC1CCCN1C(=O)c1cc2c(s1)-c1cc(F)cc(F)c1SC2 (centres unmarked) | –
37 | – | < 2 | CN(C)c1ccc2c(c1)CCc1cc(C(N)=O)sc1-2 | –
38 | – | < 2 | O=C(NS(=O)(=O)O)c1cc2c(s1)-c1ccccc1CC2 | –
39 | – | < 2 | Cc1ccc2c(c1C)-c1sc(C(=O)O)cc1CC2 | –
40 | – | < 2 | Cc1cc2c(cc1C)-c1sc(C(N)=O)cc1CC2 | –
41 | – | < 2 | Cc1cc2c(cc1C)-c1sc(C(=O)O)cc1CC2 | –
42 | – | < 1 | CC1(C)Oc2c(F)cc(F)cc2-c2sc(C(=O)O)cc21 | –
43 | – | < 1 | NC(=O)c1cc2c(s1)-c1cc(Cl)ccc1OC2 | –
44 | > 2 | – | O=C(NCCN1CCOCC1)c1cc2c(s1)-c1ccccc1CC2 | –
45 | > 2 | – | O=C(O)c1cc2c(s1)-c1c(Br)cccc1CC2 | –
46 | – | < 1 | Cc1ccc2c(c1C)CCc1cc(C(=O)O)sc1-2 | –
